In patent US20080241870A1, “Composition For Creating an Artificial Bone Marrow Like Environment and Use Thereof” (NATIONAL CENTRE FOR CELL SCINECES, priority 2005, published 2008):

What was measured:
Format in all cases: cell-based, human
αiib:β3 integrin = experiment: engraftment: HCFA of CD34+ SPC attached to ABME formed via αiib:β3 integrin signaling; settings: FIG. 7
Protocol: The mesenchyme cells (5×10^4 cells per well in a 24 well dish) were grown in IMDM plus 20% fetal bovine serum until they were nearly confluent. The medium was removed and was washed 2× with PBS. ABME was prepared by using a chemical hematomodulator [Biotin-Ser-Gly-Ser-Gly-Cys*-Asn-Pro-Arg-Gly-Asp (Tyr-OMe)Arg-Cys*Lys (cyclised between C*-C*), 10 microgram ml^−1, 18 hours] that selectively activated αiib:β3 integrin signaling in the mesenchyme cells. The ABME formed was washed 2× with PBS and was covered with 0.2 ml of a suspension of CD34^+ SPC cells (10^5 ml−1) for 1 hour, in the presence or absence of another peptide [1-Adamantaneacetyl-Cys*Gly-Arg-Gly-Asp-Ser-Pro-C(Cyclised between Cys*-Cys*)]which inhibited the interactions of αiib:β3 integrin. At the end of incubation, the cells were washed 2× with PBS and were processed for hematopoietic colony formation assays (HCFA). […] More specifically, the quantities of hematopoietic growth factors used routinely in HCFA were, 2 International Units per milliliter (2 I.U.ml^−1) of Erythropoietin (EPO), 50 nanogram per milliliter (50 ng.ml^−1) of Stem Cell Factor (SCF) and 20 nanogram per milliliter (20 ng/ml^−1) each of Granulocyte-Macrophage-Colony Stimulating Factor (GM-CSF), Granulocyte-Colony Stimulating Factor (G-CSF), Interleukin-1 beta (IL-1β), Interleukin-3 (IL-3) and Interleukin-6 (IL-6). […]

SPC = experiment: priming of SPC before contact with ABME, colony formation; settings: for colony/blood cell formation after priming SPC: SPC primed with agent
From the text: Experiments were directed to determine if the ABME had properties that promoted cell survival.

CD34+ SPC = experiment: lineage commitment: HCFA with CD34+ SPC, count of mature blood cells after 14 days
Protocol: The mesenchyme cells (5×10^4 cells per well in a 24 well dish) were grown in IMDM plus 20% fetal bovine serum until they were nearly confluent. The medium was removed and was washed 2× with PBS. Two different ABME were prepared by using two biological hematomodulators (TGFβ1 10 ngml^−1, bFGF 10 ngml^−1, 18 hours) separately. The ABME formed was washed 2× with PBS and was covered with 0.2 ml of a suspension of CD34^+ SPC cells (10^5 ml−1) for 1 hour at 37° C. All the cells of the dish were then harvested after washing and were used in a HCFA. After 14 days, the mature blood cells formed were harvested and an aliquot of the suspension was examined under the microscope to identify and count the mature lymphoid and myeloid cells.
The mesenchyme cells (5×10^4 cells per well in a 24 well dish) were grown in IMDM plus 20% fetal bovine serum until they were nearly confluent. The medium was removed and was washed 2× with PBS. The cells in one well were treated with a DiBromo derivative of the Calcium ion chelator BAPTA (5 micromolar) for one hour whereas another well received only the medium without the BAPTA derivative. After 1 hour of incubation at 37° C., TGFβ1 was added to both the wells (10 ng ml−1) and the incubation was continued for a further period of 18 hours. The ABME formed in both wells were washed and were used for HCFA using CD34^+ SPC. After 14 days the mature blood cells were harvested and were quantitated for the cells of erythroid and myeloid lineage.

[1] = system: mesenchymal cells (ABME) with MNC; experiment: quantitative hematopoietic colony formation assay for ABME (HCFA-ABME): MNC with hematomodulator-contacted mesenchymal cells
From the text: As described above, the medium for blood cell formation employed may be IMDM with 20% serum and supplemented with interleukins such as IL-lbeta, IL-3, and IL-6, stem cell factor, lineage specific growth factors such as erythropoietin and GM-CSF, G-CSF; and methyl cellulose to the extent of 0.8%, the culture is maintained for 12-14 days under the culture conditions whereby blood cell colonies grow well or form colonies and clearly the growth is visible/distinguishable for further analysis and use. An assay designed in a similar manner to assess quantitative nature of ABME function is referred hereafter as ‘quantitative hematopoietic colony formation assay for ABME (HCFA-ABME)’.
Several experiments were conducted to determine that mesenchymal cells exert direct influence on SPC cell-fate. In one set of experiments, mesenchymal cells were cultured separately and nearly 50,000 of them were exposed to a typical HCFA medium comprising 0.8% methyl cellulose in IMDM and 20-30% serum along with excess amounts of various purified and human specific cytokines and hematopoietic colony stimulating growth factors (from Stem cell Technologies, […], Canada). More specifically, the quantities of hematopoietic growth factors used routinely in HCFA were, 2 International Units per milliliter (2 I.U.ml^−1) of Erythropietin (EPO), 50 nanogram per milliliter (50 ng.ml^−1) of Stem Cell Factor (SCF) and 20 nanogram per milliliter (20 ng/ml^−1) each of Granulocyte-Macrophage-Colony Stimulating Factor (GM-CSF), Granulocyte-Colony Stimulating Factor (G-CSF), Interleukin-1 beta (IL-1β), Interleukin-3 (IL-3) and Interleukin-6 (IL-6) {all growth factors and cytokines are from Stem cell Technologies, Vancouver, Canada,}.
In another set of experiments, 50,000 of the same mesenchymal cells were first mixed with nearly 100,000 MNC, held at 37° C. for at least 30 minutes and were processed for colony formation assays. In several experiments, a consistent improvement in the number and cellularity of the hematopoietic colonies was seen when both these two cell types were mixed compared to a reference where only the cells of MNC were used. The increase was ranging from 1.5 to 10-fold. Thus, the enhancement in colony formation obtained with the use of only mesenchymal cells was highly variable and unpredictable among samples. The fact that hematopoietic colonies formed in increased numbers and cellularity only when MNC and mesenchymal cells were processed together is evidence of a new environment created by the mesenchymal cells in which the SPC present in the MNC were more productive. This increase results in activation of the pre-existing but quiescent SPC, formation of new SPC due to self-renewal, and a combination of both factors.
In order to create ABME, the mesenchymal cells were covered with the contacting medium comprising hematomodulators contained in IMDM with 20% human serum or fetal bovine serum for a desirable period (range 8-24 hours) and removed. The contacted cells were then washed 2 times using the contacting medium (IMDM +20% FCS) without hematomodulators and used as such or after harvesting the mesenchymal cells, which now represent the composition of in vitro ABME. Optionally, ABME cells can be configured on supports that will distribute them in two or more dimensions for better results. A requisite number of MNC/SPC and cells of the ABME are taken and kept together for a suitable duration (range 0.5 to 6 hours) after which they were processed for in vitro hematopoietic colony formation assays or hematopoiesis.
Thus, the inventors undertook 4 sets of experiments: (a) wherein mononuclear cells were exposed to mesenchymal cells without any treatment; (b) wherein MNC were exposed to mesenchymal cells contacted with a biological agent [TGFβ1] […]

1-Adamantaneacetyl-Cys*Gly-Arg-Gly-Asp-Ser-Pro-C(Cyclised between Cys*-Cys*) (GRGDSP; N-terminal 1-adamantaneacetyl-Cys, C-terminal Cys; cyclised Cys-Cys; printed: Gly-Arg-Gly-Asp-Ser-Pro-)
hematopoietic colony numbers in presence of inhibitory peptide (αiib:β3 integrin; inhibitor present during SPC contact with ABME formed by activating peptide): colony numbers decreased in an inhibitor dose dependent manner

NC(=O)c1cccc(N)c1 [3 Amino Benzamide, reference compound]
colony/blood cell formation after priming SPC (SPC): improved colony/blood cell formation | number of hematopoietic colonies formed from treated SPC (SPC; SPC treated to inhibit Poly(ADP-ribose) Polymerase, FIG. 9): synergistically increasing the number of hematopoietic colonies formed

O=C(O)CN(CC(=O)O)c1ccc(Br)cc1OCCOc1cc(Br)ccc1N(CC(=O)O)CC(=O)O [DiBromo BAPTA, DiBromo derivative of Ca^++ chelator BAPTA, reference compound]
proportion of myeloid and erythroid cells (CD34+ SPC; 5 micromolar for one hour, then TGFβ1 10 ng ml-1 18 hours, vs TGFβ1 alone, FIG. 8b): significant difference in the proportion of myeloid and erythroid cell population

CC(C)[C@H]1C(=O)N[C@H](CO)Cc2c[nH]c3cccc(c23)N1C [chemical agent 1, (—) Indolactam V, reference compound]
colonies of cells relative to (A) ([1]; MNC exposed to mesenchymal cells contacted with chemical agent, (A) = untreated mesenchymal cells): at least 4 times

Biotin-Ser-Gly-Ser-Gly-Cys*-Asn-Pro-Arg-Gly-Asp (Tyr-OMe)Arg-Cys*Lys (cyclised between C*-C*)
hematopoietic colonies formed by ABME (activating peptide) (αiib:β3 integrin; 10 microgram ml^-1, 18 hours, CD34+ SPC 1 hour, HCFA 12-14 days): significantly more number of hematopoietic colonies

HuFGF-2
mature lymphoid and myeloid cells formed (CD34+ SPC; 10 ngml^-1, 18 hours, HCFA 14 days, FIG. 8a): more of lymphoid cells were produced | efficiency of ABME created ([1]; 1-25 nano gram.ml^-1, mesenchymal cells contacted 8-24 hours): equally efficient ABME | colony formation along lineages GEMM, BFU-E and GM ([1]; lineage specific colony formation assay, FIG. 3A, vs control without biological agent): uniformly stimulated | potency in creating ABME from mesenchymal cells ([1]; used separately): nearly equipotent

IGF-1: priming agent activating IGF-I receptor signals
colony/blood cell formation after priming SPC (SPC): improved colony/blood cell formation

IGF-II: priming agent, Mannose6-phosphate/IGF-II receptor
colony/blood cell formation after priming SPC (SPC): improved colony/blood cell formation

Latency Associated peptide of human TGF beta1.
colony/blood cell formation after priming SPC (SPC): improved colony/blood cell formation
